Experimental data reported in US12263066B2, “Apparatuses, systems and methods for perforating and aspirating inner ear” (priority 2018, dated 2025).

Test: Valia-Chien diffusion cell, trans-membrane diffusion of RhoB
Format: in vitro ADME
Description: A Valia-Chien cell apparatus separated by an artificial barrier membrane was used to compare the in vitro drug delivery kinetics of the small molecule Rhodamine B delivered via P407 and saline solution, both with and without perforations. The applied methods for measuring trans-membrane diffusion were adapted from the American Association of Pharmaceutical Scientists as well as the Federal Drug Administration recommendations for in vitro percutaneous absorption rate studies (EPA, Recommended Protocol For In Vitro Percutaneous Absorption Rate Studies, Federal Register Notices, 61(65):14773-14778, 1996. Agency Docket: OPPTS-42186A.)
P407 powder (Spectrum Chemical, Gardena, CA) was mixed with demineralized water and RhoB to create a 0.1 mM RhoB solution in 18% P407 by weight. The resulting mixture was stirred at room temperature and kept overnight in a refrigerator at 3 to 4° C. to facilitate dissolution of the P407 powder. At the chosen P407 concentration, the mixture transitioned into gel upon placement within the room-temperature testing apparatus.
Diffusion of RhoB through an artificial membrane barrier was performed using 9 mm clear unjacketed Valia-Chien diffusion cells (PermeGear Inc., Hellertown, PA) with 5 mL volumes and flat-ground joints. […] The Valia-Chien diffusion cells 800 were arranged horizontally, mitigating the effects of gravity on particle movement and allowing for active stirring of both the donor 810 and receptor compartments 820 by magnetic mini-stirrers 840 (HI 190M-1, Hanna Instruments, Woonsocket, RI). A 3D-printed adapter 850 was used as a conduit between the chambers 810, 820.
The donor chamber 810 was filled with 5.0 mL volumes of: (A) 0.1 mM RhoB in PBS or (B) 0.1 mM RhoB in 18% P407. An additional sample of donor solution was reserved for the calibration of fluorescence detection, as detailed below. Active stirring of the donor chamber 810 was performed for experiments utilizing PBS, but not those utilizing gelified P407. Initial filling of the donor chamber marked time zero for each experiment.
The receptor chamber 820 was filled with 5.0 mL of PBS prepared by dissolving 9.6 g of Dulbecco's Phosphate Buffered Saline powder (Sigma-Aldrich) in 1.0 L deionized water. An Eppendorf micropipette was used to withdraw 75 μL of fluid from the receptor chamber every 15 minutes, from 0 min to 165 min, for a total of 12 samples. The collected samples were placed in individual wells of a 96-well plate for further analysis. The withdrawn solution was replaced with 75 μL of PBS to prevent advection of fluid within the system. […] Active stirring of the receptor chamber 820 was performed for all experiments.
Whatman™ Grade 2 Qualitative Filter Paper with diameter 5.5 cm, thickness 190 μm and pore size 8.0 μm (Whatman Limited, England) was used as an artificial membrane 830 barrier separating the donor and receptor chambers. […] Using an artificial barrier controlled for pore size as well as membrane thickness. The filter paper was cut to fit a custom 3D-printed diffusion cell adapter, which was circumferentially sealed with general-purpose epoxy. Teflon tape was used to prevent leakage between the 3D-printed adapter and the joint, which were secured with a standard Valia-Chien cell clamp. The filter paper was equilibrated in PBS solution for 30 min prior to any contact with donor substance. […]

For `CCN(CC)c1ccc2c(-c3ccccc3C(=O)O)c3ccc(=[N+](CC)CC)cc-3oc2c1.[Cl-]` [RhoB, Rhodamine B], the permeance (RhoB in P407, membrane with one 200 μm perforation) was 3.0×10^−7 m s^−1, the permeance (RhoB in P407, unperforated artificial membrane) was 2.2×10^−7 m s^−1 and the permeance (RhoB in PBS, unperforated artificial membrane) was 3.04×10^−6 m s^−1. For the same compound, the “diffusion rate in P407 relative to saline (times lower)” value (after the initial burst release) was “more than 10 times” and the “increase in measured permeance” value (saline as solvent, membranes with up to four 100 μm perforations vs unperforated) was 1.5 fold.
